In ChEMBL document CHEMBL5390265, “Design, Synthesis, and Pharmacological Evaluation of Multisubstituted Pyrido[4,3-d]pyrimidine Analogues Bearing Deuterated Methylene Linkers as Potent KRASG12D Inhibitors” (J Med Chem, 2023):
Activity calls are given as the source filed them. The calls are words filed in the database; no cut-off is given here.

Legend:
[1] = AUC in Sprague-Dawley rat at 1 mg/kg,iv measured upto 24 hrs by LC-MS/MS analysis; assay type: ADME, organism-based; set-up: dose 1 mg/kg, time < 24 hrs, route iv; settings: in vivo
NCI-H1299 = experiment: Antiproliferative activity against human NCI-H1299 cells harboring KRAS wild type assessed as inhibition of cell growth incubated for 5 days by crystal violet staining analysis; assay type: functional, cell-based; settings: NCI-H1299, 120 h
ASPC1 [2] = experiment: Antiproliferative activity against human ASPC1 cells harboring […] assessed as inhibition of cell growth incubated for 5 days by crystal violet staining analysis; assay type: functional, cell-based
[3] = Half life in Sprague-Dawley rat at 1 mg/kg,iv measured upto 24 hrs by LC-MS/MS analysis; assay type: ADME, organism-based; settings: in vivo
A549 = experiment: Antiproliferative activity against human A549 cells harboring […] assessed as inhibition of cell growth incubated for 5 days by crystal violet staining analysis; assay type: functional, cell-based
AGS = experiment: Antiproliferative activity against human AGS cells harboring […] assessed as inhibition of cell growth incubated for 5 days by crystal violet staining analysis; assay type: functional, cell-based
[4] = Clearance in Sprague-Dawley rat at 1 mg/kg,iv measured upto 24 hrs by LC-MS/MS analysis; assay type: ADME, organism-based; settings: in vivo
GTPase KRas [5] = biological target: T1, GTPase KRas (Homo sapiens, UniProt P01116); experiment: Inhibition of recombinant human GTP-bound KRAS wild type (1 to 169 residues) incubated for 1 hr by HTRF assay
ASPC1 [6] = experiment: Antitumor activity against human ASPC1 cells xenografted in mouse assessed as inhibition of tumor growth at 20 mg/kg,ip administrated twice daily for 20 consecutive days relative to control; assay type: functional; settings: read-out: TGI
ASPC1 [7] = experiment: Antitumor activity against human ASPC1 cells xenografted in mouse assessed as inhibition of tumor growth at 10 mg/kg,ip administrated twice daily for 20 consecutive days relative to control; assay type: functional; settings: read-out: TGI
[8] = Inhibition of recombinant human His6-tagged KRAS4B G12D mutant incubated for 1 hr by HTRF assay
GTPase KRas [9] = biological target: T1, GTPase KRas; experiment: Inhibition of KRAS in human AGS cells assessed as downregulation of ERK phosphorylation incubated for 3 hrs by immunoblotting analysis; assay type: cell-based; settings: tested as the 2H-labelled form
GTPase KRas [10] = biological target: T1, GTPase KRas; experiment: Inhibition of KRAS in human AGS cells assessed as downregulation of AKT phosphorylation incubated for 3 hrs by immunoblotting analysis; assay type: cell-based; settings: tested as the 2H-labelled form
GTPase KRas [11] = biological target: T1, GTPase KRas; experiment: Inhibition of KRAS in human ASPC1 cells assessed as downregulation of AKT phosphorylation incubated for 3 hrs by immunoblotting analysis; assay type: cell-based; settings: tested as the 2H-labelled form
ASPC1 [12] = experiment: Antitumor activity against human ASPC1 cells xenografted in mouse assessed as inhibition of Ki-67 expression level at 20 mg/kg,ip administrated twice daily for 20 consecutive days by immunohistochemistry analysis; assay type: functional, organism-based; settings: tested as the 2H-labelled form
GTPase KRas [13] = biological target: T1, GTPase KRas; experiment: Inhibition of KRAS in human ASPC1 cells assessed as downregulation of AKT phosphorylation at 0.65 nM incubated for 3 hrs by immunoblotting analysis; assay type: cell-based; settings: tested as the 2H-labelled form
GTPase KRas [14] = biological target: T1, GTPase KRas; experiment: Inhibition of KRAS in human ASPC1 cells assessed as downregulation of ERK phosphorylation at 0.65 nM incubated for 3 hrs by immunoblotting analysis; assay type: cell-based; settings: tested as the 2H-labelled form
GTPase KRas [15] = biological target: T1, GTPase KRas; experiment: Inhibition of KRAS in human AGS cells assessed as downregulation of AKT phosphorylation at 0.65 nM incubated for 3 hrs by immunoblotting analysis; assay type: cell-based; settings: tested as the 2H-labelled form
ASPC1 [16] = experiment: Antitumor activity against human ASPC1 cells xenografted in mouse assessed as inhibition of ERK phosphorylation level at 20 mg/kg,ip administrated twice daily for 20 consecutive days by immunoblotting analysis; assay type: functional, organism-based; settings: tested as the 2H-labelled form
ASPC1 [17] = experiment: Antitumor activity against human ASPC1 cells xenografted in mouse assessed as inhibition of AKT phosphorylation level at 20 mg/kg,ip administrated twice daily for 20 consecutive days by immunoblotting analysis; assay type: functional, organism-based; settings: tested as the 2H-labelled form
ASPC1 [18] = experiment: Antitumor activity against human ASPC1 cells xenografted in mouse assessed as inhibition of AKT phosphorylation level at 10 mg/kg,ip administrated twice daily for 20 consecutive days by immunoblotting analysis; assay type: functional, organism-based; settings: tested as the 2H-labelled form
ASPC1 [19] = experiment: Antitumor activity against human ASPC1 cells xenografted in mouse assessed as inhibition of ERK phosphorylation level at 10 mg/kg,ip administrated twice daily for 20 consecutive days by immunoblotting analysis; assay type: functional, organism-based; settings: tested as the 2H-labelled form
GTPase KRas [20] = biological target: T1, GTPase KRas; experiment: Inhibition of KRAS in human ASPC1 cells assessed as downregulation of ERK phosphorylation at 6.25 to 100 nM incubated for 3 hrs by immunoblotting analysis; assay type: cell-based; settings: dose 6.25-100 nM, tested as the 2H-labelled form
GTPase KRas [21] = biological target: T1, GTPase KRas; experiment: Inhibition of KRAS in human ASPC1 cells assessed as downregulation of ERK phosphorylation incubated for 3 hrs by immunoblotting analysis; assay type: cell-based; settings: tested as the 2H-labelled form
GTPase KRas [22] = biological target: T1, GTPase KRas; experiment: Inhibition of KRAS in human AGS cells assessed as downregulation of ERK phosphorylation at 0.65 nM incubated for 3 hrs by immunoblotting analysis; assay type: cell-based; settings: tested as the 2H-labelled form
ASPC1 [23] = experiment: Antitumor activity against human ASPC1 cells xenografted in mouse assessed as inhibition of Ki-67 expression level at 10 mg/kg,ip administrated twice daily for 20 consecutive days by immunohistochemistry analysis; assay type: functional, organism-based; settings: tested as the 2H-labelled form

## [2H]C([2H])(Oc1nc(NCC2(N(C)C)CCC2)c2cnc(-c3cc(N)cc4ccc(F)c(C#C)c34)c(F)c2n1)C12CCCN1CC(=C(F)F)C2 (stereo unspecified)
[1]
  AUC at 24 h: 218 ng·h/mL
NCI-H1299
  IC50: > 5000 nM
ASPC1 [2]; Homo sapiens, ASPC1, 120 h
  IC50: 28.4 nM
[3]
  half-life: 9.42 h
A549; Homo sapiens, A549, 120 h
  IC50: 700 nM
AGS; Homo sapiens, AGS, 120 h
  IC50: 12 nM
[4]
  clearance: 81.1 mL/min/kg

## [2H]C([2H])(Oc1nc(NCC2(N(C)C)CCC2)c2cnc(-c3cc(O)cc4ccc(F)c(C#C)c34)c(F)c2n1)C12CCCN1CC(=C(F)F)C2 (stereo unspecified)
[1]
  AUC at 24 h: 562 ng·h/mL
NCI-H1299
  IC50: 1820 nM
ASPC1 [2]; Homo sapiens, ASPC1, 120 h
  IC50: 1.7 nM
GTPase KRas [5]
  IC50: 18.5 nM
ASPC1 [6]
  inhibition in vivo at 20 mg/kg: 68.4%
[3]
  half-life: 6.91 h
ASPC1 [7]
  inhibition in vivo at 10 mg/kg: 54.7%
A549; Homo sapiens, A549, 120 h
  IC50: 499 nM
AGS; Homo sapiens, AGS, 120 h
  IC50: 0.6 nM
[4]
  clearance: 33.4 mL/min/kg
[8]
  IC50: 1.21 nM

## C#Cc1c(F)ccc2cc(O)cc(-c3ncc4c(N5C[C@H]6CC[C@@H](C5)N6)nc(OCC56CCCN5CC(=C(F)F)C6)nc4c3F)c12 (stereo partly specified)
GTPase KRas [9]
  inhibition: Dose-Dependent Effect
GTPase KRas [10]
  inhibition: Dose-Dependent Effect
GTPase KRas [11]
  inhibition: Dose-Dependent Effect
ASPC1 [12]
  Activity: Active
GTPase KRas [13]
  inhibition: Active
GTPase KRas [14]
  inhibition: Active
GTPase KRas [15]
  inhibition: Active
ASPC1 [16]
  Activity: Active
ASPC1 [17]
  Activity: Active
ASPC1 [18]
  Activity: Active
ASPC1 [19]
  Activity: Active
GTPase KRas [20]
  inhibition: > 90%
GTPase KRas [21]
  inhibition: Dose-Dependent Effect
GTPase KRas [22]
  inhibition: Active
ASPC1 [23]
  Activity: Active

## C#CCN(C)C(=O)OC[C@H]1CC[C@@]2(COc3nc(N4C[C@H]5CC[C@@H](C4)N5)c4cnc(-c5cc(O)cc6ccc(F)c(C#C)c56)c(F)c4n3)CCCN12 (racemic)
NCI-H1299
  IC50: > 5000 nM
ASPC1 [2]; aspc1
  IC50: 39.4 nM
A549; a549
  IC50: 1760 nM
AGS; ags
  IC50: 25.5 nM

## C#Cc1c(F)ccc2cc(O)cc(-c3ncc4c(N5C[C@H]6CC[C@@H](C5)N6)nc(OC[C@]56CCCN5[C@@H](Cn5cc(C(C)(C)O)nn5)CC6)nc4c3F)c12 (racemic)
NCI-H1299
  IC50: > 5000 nM
ASPC1 [2]; Homo sapiens, ASPC1, 120 h
  IC50: > 50 nM
A549; Homo sapiens, A549, 120 h
  IC50: > 5000 nM
AGS; Homo sapiens, AGS, 120 h
  IC50: > 50 nM
